Experimental findings from ChEMBL document CHEMBL1155693, “Structures of five components of the actinomycin Z complex from Streptomyces fradiae, two of which contain 4-chlorothreonine” (2000) are described below.

In brackets after ≈: the same amount, converted by molar mass. *1 amine or outer side, *2 acyl side, *3 side chain or, on linkers, in order; H or OH if unused. Where a SMILES comes first, the peptide text is derived from it. Bridges are numbered along the chain shown (N, C = ends). Roman numbers before positions name the chains, in order. [ ]: non-standard residue; d: D form. Actinocin(1to9) = Cc1c2oc3c(C)ccc(C(=O)[*:2])c3nc-2c(C(=O)[*:1])c(N)c1=O; NMeV = CN[C@H](C(=O)O)C(C)C; Sar = CNCC(=O)O

A word on the GI50: it is the concentration at which growth is held to half of that of the control. Read a high GI50 as less potent growth inhibition. Usually TGI stands for the concentration giving total growth inhibition. Read a high TGI as less potent growth arrest. As usually defined, the LC50 is the concentration that kills 50% of the test population. A lower LC50 goes with a more lethal substance. For orientation: MIC means the smallest concentration in the dilution series that meets the test's criterion for growth inhibition. A lower MIC goes with inhibition by little substance.

Format in all cases: functional
In one test the test system is MCF7. The experiment in a line: Cytotoxicity against human MCF7 cells after 48 hrs by sulforhodamine assay. The settings on record: MCF7, 48 h; for CC50: read-out: LC50 (the source's name).
The subject of another test is HepG2. The experiment in a line: Cytotoxicity against human HepG2 cells after 48 hrs by sulforhodamine assay. To be noted: HepG2, 48 h.
Another test has as its system Bacillus subtilis. The experiment in a line: Antibacterial activity against Bacillus subtilis ATCC 6051 after 18 hrs. To be noted: ATCC 6051, 18 h.
Test [1] in a line: Cytotoxicity against human HMO2 cells after 48 hrs by sulforhodamine assay. The settings on record: HMO2, 48 h; for CC50: read-out: LC50 (the source's name).

As to `Cc1c2oc3c(C)ccc(C(=O)N[C@@H]4C(=O)N[C@H](C(C)C)C(=O)N5[C@H](C(=O)N(C)CC(=O)N(C)[C@@H](C(C)C)C(=O)O[C@@H]4C)[C@@H](O)C[C@@H]5C)c3nc-2c(C(=O)N[C@@H]2C(=O)N[C@H](C(C)C)C(=O)N3[C@@H](C)C(=O)C[C@H]3C(=O)N(C)CC(=O)N(C)[C@@H](C)C(=O)O[C@H]2CO)c(N)c1=O` [ACTINOMYCIN Z1], in the test with MCF7, the GI50 was below 500 nM, the TGI is above 50000 nM and the CC50 was above 50000 nM. In the test on HepG2, this compound yielded a GI50 of 950 nM, a 50% lethal concentration (LC50) above 50000 nM and a TGI of 5500 nM. The MIC with Bacillus subtilis amounted to 12.5 µg/mL (≈ 9.6 µM). For the same compound, in test [1], the concentration for 50% growth inhibition (GI50) stood at 750 nM, the total growth inhibition concentration (TGI) amounted to 5800 nM and the CC50 is above 50000 nM.
As to `Cc1c2oc3c(C)ccc(C(=O)N[C@@H]4C(=O)N[C@H](C(C)C)C(=O)N5[C@H](C(=O)N(C)CC(=O)N(C)[C@@H](C(C)C)C(=O)O[C@@H]4C)[C@@H](O)C[C@@H]5C)c3nc-2c(C(=O)N[C@@H]2C(=O)N[C@H](C(C)C)C(=O)N3[C@@H](C)C(=O)C[C@H]3C(=O)N(C)CC(=O)N(C)[C@@H](C)C(=O)O[C@H]2CCl)c(N)c1=O` [ACTINOMYCIN Z3], in the test with MCF7, the GI50 was below 100 nM, the TGI is below 100 nM and the CC50 is 500 nM. In the test on HepG2, the GI50 is below 100 nM, the LC50 was above 50000 nM and total growth inhibition (TGI) required 1400 nM. Also, the minimal inhibitory concentration (MIC) in the test on Bacillus subtilis was 0.2 µg/mL (≈ 0.152 µM). Moreover, in test [1], the GI50 was below 100 nM, the TGI was below 100 nM and the CC50 was 280 nM.
As for `Cc1c2oc3c(C)ccc(C(=O)N[C@@H]4C(=O)N[C@H](C(C)C)C(=O)N5[C@@H](C)CC[C@H]5C(=O)N(C)CC(=O)N(C)[C@@H](C(C)C)C(=O)O[C@@H]4C)c3nc-2c(C(=O)N[C@@H]2C(=O)N[C@H](C(C)C)C(=O)N3[C@@H](C)C(=O)C[C@H]3C(=O)N(C)CC(=O)N(C)[C@@H](C)C(=O)O[C@H]2CCl)c(N)c1=O` [ACTINOMYCIN Z5], in the test with MCF7, the concentration for 50% growth inhibition (GI50) is below 100 nM, total growth inhibition (TGI) required 120 nM and the CC50 was found to be 500 nM. Besides, in the test on HepG2, the GI50 came to 1500 nM, the 50% lethal concentration (LC50) is above 50000 nM and the TGI amounted to 10000 nM. The compound also showed an MIC against Bacillus subtilis of 0.78 µg/mL (≈ 0.598 µM). In addition, in test [1], the concentration for 50% growth inhibition (GI50) is below 100 nM, the concentration for total growth inhibition (TGI) is below 100 nM and the CC50 turned out to be 500 nM.
For the compound `Cc1c2oc3c(C)ccc(C(=O)N[C@@H]4C(=O)N[C@H](C(C)C)C(=O)N5CCC[C@H]5C(=O)N(C)CC(=O)N(C)[C@@H](C(C)C)C(=O)O[C@@H]4C)c3nc-2c(C(=O)N[C@@H]2C(=O)N[C@H](C(C)C)C(=O)N3CCC[C@H]3C(=O)N(C)CC(=O)N(C)[C@@H](C(C)C)C(=O)O[C@@H]2C)c(N)c1=O` [DACTINOMYCIN] (I: T[dV]P[Sar][NMeV] / II: T[dV]P[Sar][NMeV]; ester I:1-I:C, II:1-II:C; linker I:N-II:N via Actinocin(1to9)), in the test with MCF7, the concentration for 50% growth inhibition (GI50) came out at 500 nM, the TGI worked out at 2200 nM and the CC50 was above 50000 nM. For the same compound, in the test on HepG2, growth was halved (GI50) at 1000 nM and total growth inhibition (TGI) required 4000 nM. In the test with Bacillus subtilis, this compound had an MIC of 0.78 µg/mL (≈ 0.621 µM). Further, in test [1], the concentration for 50% growth inhibition (GI50) amounted to 300 nM, total growth inhibition (TGI) required 800 nM and the CC50 is above 50000 nM.
